In patent publication US20220226348A1, “METHOD AND COMPOSITION FOR TREATMENT OF SKIN DISEASES ASSOCIATED WITH ACCELERATED CORNEODESMOSOMES DEGRADATION OR WEAKER CELL-CELL ADHESION” (ICHILOV TECH LTD, priority 2019, published 2022):

Columns and labels:
[1] = system: corneodesmosin; test: Corneodesmosin protein expression by immunoblotting, normalized to β-actin; format: cell-based; conditions: human primary keratinocytes, immunoblot
Description: Using a high throughput screening of small molecule libraries, utilizing green fluorescent protein (GFP) base reporter system and western blot analysis for validation of the results, it has now been found, in accordance with the present invention, that betulinic acid (which is already used as topical treatment on human skin, and capable of penetrating into the skin and be active in the epidermis while showing excellent safty profile) is capable of boosting corneodesmosin biosynthesis, and when administered to keratinocytes, it increases corneodesmosin expression by more than 3-fold (FIGS. 1-2), and may thus be used as an inducer of corneodesmosin expression in patients suffering from skin diseases or disorders associated with accelerated corneodesmosomes degradation and/or weaker cell-cell adhesion.
Corneodesmosin protein levels were quantified and normalized to β-actin protein levels and presented as corneodesmosin fold expression relative to normal keratinocytes treated with DMSO. […] The other compounds shown in the figure are 5-aminolevulinic acid hydrochloride (5-ALA; #1), piperlongumine (#2), thiostrepton (#3), obatoclax mesylate (GX15-070; #5), BI 2536 (CAS No.: 755038-02-9; #6), PHA-665752 (CAS No.: 477575-56-7 (anhydrous; #7), YH239-EE (CAS No.: 1364488-67-4; #8), PF-562271 (CAS No.: 717907-75-0; #9), and BI-D1870 (CAS No.: 501437-28-1; #10).

[2] = system: CDSN; test: CDSN expression at the mRNA level in keratinocytes; format: cell-based

## C=C(C)[C@@H]1CC[C@]2(C(=O)O)CC[C@]3(C)[C@H](CC[C@@H]4[C@@]5(C)CC[C@H](O)C(C)(C)[C@@H]5CC[C@]43C)[C@@H]12 [betulinic acid]
[1]
  corneodesmosin fold expression relative to normal keratinocytes treated with DMSO: more than 3 fold
[2]
  CDSN expression at the mRNA level relative to DMSO-treated normal keratinocytes: 2 fold
